According to US6316423A, “Method of treating ischemic, hypoxic and anoxic brain damage” (priority 1999, dated 2001):
Entries after “also recorded” stand apart in the source; their conditions may differ.

Legend:
Assay type in all cases: in vivo, gerbil
[1] = system: gerbils exposed to 10 minutes of brain ischemia; assay: Mortality after 10 min ischemia, preischemic ADAC; settings: 0.1 mg/kg preischemic, entire monitoring period (14 days); control 60%
Method: Seven control animals out of 20 (35%) died during the initial 12 hour period following 10 minutes of ischemia. Three additional control gerbils died between day 1 and 3, and 2 additional animals died 5-8 hours following a water maze trial by day 14. Thus, the overall death rate of the control group was 60%. In contrast, in the ADAC-treated group only 2 animals out of 10 died (20%) during the entire monitoring period, one on day 3 and one on day 6.
(§1) Prior to subjecting the gerbils to 10 minutes of ischemia, the gerbils were randomly divided into the control and the drug testing groups. […] During post-ischemic recovery, animals were monitored each day for signs of functional damage (e.g., pareses) that might affect their subsequent water maze performance. Postischemic mortality was also monitored every day.

[2] = system: brain ischemia; assay: Comparison of effective neuroprotective concentrations with other A1 agonists; settings: vs other A1 adenosine receptor agonists examined thus far
[3] = Open field locomotor activity in nonischemic gerbils; settings: 0.1 mg/kg (100 μg/kg)
[4] = system: gerbils exposed to 10 minutes of ischemia; assay: Survival rate following 10 minutes of ischemia, postischemic ADAC
Method: In the three remaining treatment groups (i.e., 3, 6, and 12 hours) numerical improvement was apparent, but statistical significance of (P<0.05) was lost probably owing to the sample sizes. […] To prevent selection of overly robust animals into these groups, the data were not normalized to account for pre-treatment mortalities.

[5] = system: neurons of hippocampal CA1 region; assay: Neuronal survival 14 days after 10 minute ischemia, postischemic ADAC; settings: control 25±3%
Method: At the end of the survival monitoring period (14 days), control and drug treated survivors were heavily anesthetized with Nembutal (60 mg/kg, intraperitoneally), and perfused with phosphate buffered (pH 7.4) 3.5% formaldehyde as described previously (Lin et al., Neurosci., 2, 289 (1990). The sections were stained with the method of Nissl, and the extent of the neuronal loss in the hippocampal region was investigated according to a standard procedure as disclosed in the art (von Lubitz et al., (1992) supra; 1994)supra.

[6] = system: cortex, hippocampal CA1 sector, and striatum; assay: Nissl histology of neuronal loss, preischemic ADAC; settings: two weeks after ischemia
Method: The gerbils of Example 3 were subjected to examination procedures subsequent to the water maze tests described in Example 3. One day after the last postischemic water maze trial, all animals were heavily anesthetized with Nembutal and perfused through the aorta with buffered (pH 7.4) formaldehyde. Frozen sections of the brains were made as described previously (Lin et al., supra). The sections were stained using the method of Nissl, and the extent of the neuronal loss was determined in the cortex, hippocampal CA1 sector, and striatum following the published protocol of von Lubitz et al. (von Lubitz, 1992, supra; von Lubitz, 1994, supra).

[7] = system: gerbils exposed to 10 minutes of brain ischemia; assay: Chronic ADAC treatment followed by 10 minutes of ischemia; settings: 0.025, 0.050 or 0.075 mg for 60 days, one day rest
Method: The gerbils were then subjected to 10 minutes of brain ischemia and allowed to recover.

[8] = system: gerbils subjected to 10 minutes of ischemia; assay: Open field locomotor activity 7 days after ischemia; settings: preischemic ADAC, 10 minute period, control 235±3 cm, P<0.001
Method: as §1
Since locomotor hyperactivation may result in a spurious improvement of performance in the water maze (von Lubitz et al., 1993, supra), open field activity of all gerbils was assessed 7 days after the occlusion (i.e., one day prior to the water maze experiments). During locomotor testing, horizontal displacement of each gerbil was monitored in 2 minute epochs for 10 minutes using a Digiscan activity monitor (available from Omnitech Electronics, Colombus, Ohio).

[9] = 0.1 mg/kg ADAC 15 min post ischemia
[10] = 0.1 mg/kg ADAC 30 min post ischemia
[11] = 0.1 mg/kg ADAC 2 hour post ischemia
[12] = 0.1 mg/kg ADAC 3 hour post ischemia
[13] = 0.1 mg/kg ADAC 6 hour post ischemia
[14] = 0.1 mg/kg ADAC 12 hour post ischemia

SMILES: NCCNC(=O)Cc1ccc(NC(=O)Cc2ccc(Nc3ncnc4c3ncn4[C@@H]3O[C@H](CO)[C@@H](O)[C@H]3O)cc2)cc1 [ADAC]
- death rate [1]: 20%
- level of efficacy versus other A1 adenosine receptor agonists [2]: about an order of magnitude better
- behavioral changes by open field locomotor activity testing [3]: does not induce behavioral changes; also recorded: did not induce any behavioral changes
- Survival Rate 24 h postischemia [4, 9]: 100%
- Survival Rate 14 days postischemia [4, 9]: 70%
- Survival Rate 24 h postischemia [4, 10]: 100%
- Survival Rate 14 days postischemia [4, 10]: 90%
- Survival Rate 24 h postischemia ([4]; 0.1 mg/kg ADAC 1 hour post ischemia): 80%
- Survival Rate 24 h postischemia [4, 11]: 80%
- Survival Rate 14 days postischemia [4, 11]: 80%
- Survival Rate 24 h postischemia [4, 12]: 60%
- Survival Rate 14 days postischemia [4, 12]: 50%
- Survival Rate 24 h postischemia [4, 13]: 50%
- Survival Rate 14 days postischemia [4, 13]: 50%
- Survival Rate 24 h postischemia [4, 14]: 60%
- Survival Rate 14 days postischemia [4, 14]: 50%
- CA1 neuronal preservation ([5]; ADAC at 0.5, 2 or 3 hours postischemia): ~ 75%
- CA1 neurons surviving ([5]; ADAC at 15 minutes, 6 or 12 hours postischemia): approximately 60%
- CA1 neurons still intact ([5]; ADAC at 1 hour postischemia): 88±4%
- hippocampal CA1 neurons surviving ([6]; control 23%): 81%
- neuronal loss in cortex and striatum ([6]; control 83% (cortex) and 25% (striatum) surviving): complete elimination of neuronal loss
- survival rate after chronic treatment followed by ischemia ([7]; FIG. 7A): attenuated the effects of brain ischemia
- neuronal loss after chronic treatment followed by ischemia ([7]; FIG. 7B): attenuated the effects of brain ischemia
- open field activity (horizontal displacement) [8]: 135±6 cm
